In a compilation of properties of binary mixtures (doi:10.1021/je300384g):

Experiment: xn = mol fraction of the nth substance listed
Settings: 101 kPa

CCCC[N+]1(C)CCCC1.N#C[N-]C#N + CC(C)O
speed of sound [m/s]
Settings | 298.15 K | 313.15 K | 328.15 K
x2 = 0 | 1810 | 1773 | 1736
x2 = 0.0466 | – | 1761 | 1724
x2 = 0.0896 | 1789 | – | 1713
x2 = 0.1849 | 1761 | 1723 | 1685
x2 = 0.2967 | 1723 | 1684 | 1646
x2 = 0.4039 | 1676 | 1637 | 1598
x2 = 0.5056 | 1622 | – | 1543
x2 = 0.6018 | 1559 | 1518 | 1478
x2 = 0.6997 | 1483 | 1440 | 1398
x2 = 0.8066 | 1382 | – | 1293
x2 = 0.892 | – | 1240 | –
x2 = 0.9461 | – | 1170 | 1120

CCCC[N+]1(C)CCCC1.N#C[N-]C#N + CCCCO
speed of sound [m/s]
Settings | 298.15 K | 313.15 K | 328.15 K
x2 = 0 | – | – | 1736
x2 = 0.0464 | 1799 | 1761 | 1724
x2 = 0.0945 | 1787 | 1749 | 1712
x2 = 0.1898 | 1759 | 1720 | –
x2 = 0.299 | 1720 | 1680 | 1642
x2 = 0.4012 | 1674 | 1635 | 1596
x2 = 0.4989 | 1624 | 1583 | 1544
x2 = 0.5996 | 1564 | 1522 | –
x2 = 0.6947 | 1500 | 1457 | –
x2 = 0.7995 | 1420 | – | 1333
x2 = 0.8965 | 1339 | 1293 | 1247
x2 = 0.9464 | 1295 | 1246 | 1199

CC(C)O + CCCC[N+]1(C)CCCC1.N#C[N-]C#N
x1 = 1
Settings | speed of sound [m/s]
313.15 K | 1088
328.15 K | 1034

CCCCO + CCCC[N+]1(C)CCCC1.N#C[N-]C#N
x1 = 1
Settings | speed of sound [m/s]
298.15 K | 1240
313.15 K | 1190
328.15 K | 1140

CCCO + CCCC[N+]1(C)CCCC1.N#C[N-]C#N
x1 = 1
Settings | speed of sound [m/s]
298.15 K | 1206
313.15 K | 1155
328.15 K | 1105

CCCC[N+]1(C)CCCC1.N#C[N-]C#N + CCCO
speed of sound [m/s]
Settings | 298.15 K | 313.15 K | 328.15 K
x2 = 0 | 1810 | 1773 | –
x2 = 0.0669 | 1796 | 1758 | 1722
x2 = 0.1894 | 1766 | 1728 | 1690
x2 = 0.2912 | – | 1695 | 1657
x2 = 0.3998 | 1693 | – | 1615
x2 = 0.514 | – | 1598 | –
x2 = 0.597 | 1590 | 1549 | 1509
x2 = 0.6944 | 1523 | 1480 | –
x2 = 0.8002 | 1434 | – | 1346
x2 = 0.894 | 1339 | 1292 | 1247
x2 = 0.9437 | 1281 | 1233 | 1186
